From patent US10577362B2, “Substituted 2, 4-diamino-quinoline derivatives for use in the treatment of proliferative diseases” (GENOSCIENCE PHARMA, priority 2016, dated 2020)
Counter-ions that a name gives are not always drawn.

How the values were obtained:
Assay type in all cases: cell-based, human
[1] = test system: Huh7 (hepatocellular carcinoma) cell line; experiment: CellTiter-Glo luminescent cell viability assay, Huh7; details: Homo sapiens, Huh-7; for viability at 4 µM: Huh7, compound at 4 μM; for viability at 4 µM / viability at 10 µM: 72 h; for viability at 10 µM: Huh7, compound at 10 μM; for EC50: Huh7 cell line, 72 h incubation, CellTiter-Glo, read-out: EC50, growth inhibition of Huh7
Procedure, shortened: (§1)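 Adherent lines plated overnight, MOLM-14 (suspension) 1 h before dosing, in medium with 10% FBS at 37 °C, 5% CO2. Compounds added at varying concentrations for 72 h; CellTiter-Glo luminescence read, EC50 as dose reducing signal to 50% of diluent-treated cells, at least duplicate points.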

[2] = test system: A375 (malignant melanoma) cell line; experiment: CellTiter-Glo luminescent cell viability assay, A375; details: Homo sapiens, A-375; for viability at 4 µM: A375, compound at 4 μM; for viability at 4 µM / viability at 10 µM: 72 h; for viability at 10 µM: A375, compound at 10 μM; for EC50: A375 cell line, 72 h incubation, CellTiter-Glo, read-out: EC50, growth inhibition of A375
Procedure, shortened: (§2)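 Adherent cells grow overnight, or suspension cells are seeded 1 h ahead; compound dilutions are then added and plates incubated 72 h at 37 °C. After 30 min at room temperature, CellTiter-Glo reagent is added and luminescence recorded. EC50 derives from signal relative to diluent control.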

[3] = test system: 786-O (renal adenocarcinoma) cell line; experiment: CellTiter-Glo luminescent cell viability assay, 786-O; details: Homo sapiens, 786-0; for viability at 4 µM / viability at 10 µM: 786-O, 72 h; for viability at 4 µM: compound at 4 μM; for viability at 10 µM: compound at 10 μM; for EC50: 786-O cell line, 72 h incubation, CellTiter-Glo, read-out: EC50, growth inhibition of 786-O
Procedure, shortened: as §2

[4] = test system: MOLM-14 (acute myeloid leukemia) cell line; experiment: CellTiter-Glo luminescent cell viability assay, MOLM-14; details: Homo sapiens; for viability at 4 µM: MOLM-14, compound at 4 μM; for viability at 4 µM / viability at 10 µM: 72 h; for viability at 10 µM: MOLM-14, compound at 10 μM; for EC50: MOLM-14 cell line, 72 h incubation, CellTiter-Glo, read-out: EC50, growth inhibition of MOLM-14
Procedure, shortened: as §1

[5] = test system: HepG2 (hepatocellular carcinoma) cell line; experiment: CellTiter-Glo luminescent cell viability assay, HepG2; details: Homo sapiens; for viability at 4 µM / viability at 10 µM: HepG2, HepG, 72 h; for viability at 4 µM: compound at 4 μM; for viability at 10 µM: compound at 10 μM; for EC50: HepG2 cell line, 72 h incubation, CellTiter-Glo, read-out: EC50, growth inhibition of HepG2
Procedure, shortened: as §1

[6] = test system: HCT-116 (colorectal carcinoma) cell line; experiment: CellTiter-Glo luminescent cell viability assay, HCT-116; details: Homo sapiens; for viability at 4 µM: HCT-116, compound at 4 μM; for viability at 4 µM / viability at 10 µM: 72 h; for viability at 10 µM: HCT-116, compound at 10 μM; for EC50: HCT-116 cell line, 72 h incubation, CellTiter-Glo, read-out: EC50, growth inhibition of HCT-116
Procedure, shortened: as §2

Row | EC50 [1] | EC50 [2] | EC50 [3] | EC50 [4] | EC50 [5] | EC50 [6] | Compound | viability at 4 µM [1] | viability at 10 µM [1] | viability at 4 µM [2] | viability at 10 µM [2] | viability at 4 µM [3] | viability at 10 µM [3] | viability at 4 µM [4] | viability at 10 µM [4] | viability at 4 µM [5] | viability at 10 µM [5] | viability at 4 µM [6] | viability at 10 µM [6]
1 | – | – | – | – | – | – | Cc1ccc(Nc2nc3ccccc3c(N3CCC(NC(C)(C)C)CC3)c2C#N)cc1 [Compound 3248CN, 2-(4-methylphenylamino)-3-cyano-4-[4-(tert-butylamino)piperidin-1-yl]quinoline] | 89.3% | 56.3% | 79.2% | 0.4% | 100% | 27.7% | 88.5% | 53.4% | 109% | 73.1% | 88.9% | 0.5%
2 | 0.5 to 5 µM | 0.5 to 5 µM | 0.5 to 5 µM | 0.5 to 5 µM | 0.5 to 5 µM | 0.5 to 5 µM | Clc1ccc(CNc2cc(N3CC[C@@H](Oc4ccccc4)C3)c3ccccc3n2)cc1 [Compound 3012, (3R) 2-(4-chlorobenzylamino)-4-[3-(phenoxy)pyrrolidin-1-yl]quinoline hydrochloride] | – | – | – | – | – | – | – | – | – | – | – | –
3 | – | – | – | – | – | – | Cc1cc(Nc2nc3ccccc3c(N3CCC(NC(C)(C)C)CC3)c2C#N)ccc1Nc1nccc(C(F)(F)F)n1 [Compound 534CN, 2-[3-methyl-4-(4-trifluoromethylpyrimidin-2-ylamino)phenylamino]-3-cyano-4-(4-tert-butylaminopiperidin-1-yl)quinoline] | 49.1% | 0.4% | 0.4% | 0.2% | 2.1% | 0.2% | 0.4% | 0.3% | 13% | 0.2% | 0.4% | 0.2%
4 | – | – | – | – | – | – | Cc1nccnc1OC1CCN(c2c(C#N)c(NCc3ccc(Cl)cc3)nc3ccccc23)CC1 [Compound 2970CN, 2-(4-chlorobenzylamino)-3-cyano-4-{4-[(3-methylpyrazin-2-yl)oxy]piperidin-1-yl}quinoline] | 63.7% | 53.4% | 91.9% | 80.8% | 89.4% | 79.8% | 92% | 61.2% | 87.8% | 63.3% | 70.5% | 47%
5 | – | – | – | – | – | – | Cc1cc2c(C)nc(Nc3ccc(Nc4nc5ccccc5c(N5CCC(NC(C)(C)C)CC5)c4C#N)cc3C)nc2o1 [Compound 512CN, 2-[3-methyl-4-(4,6-dimethylfuro[2,3-d]pyrimidin-2-ylamino)phenylamino]-3-cyano-4-(4-tert-butylaminopiperidin-1-yl)quinoline] | 0.2% | 0.3% | 0.3% | 0.2% | 0.2% | 0.2% | 0.2% | 0.3% | 0.2% | 0.2% | 0.2% | 0.2%
6 | 0.5 to 5 µM | 5 to 10 µM | 5 to 10 µM | 5 to 10 µM | 0.5 to 5 µM | 5 to 10 µM | CC(C)(C)NC(=O)C1CCN(c2cc(NCc3ccc(Cl)cc3)nc3ccccc23)CC1 [Compound 1604, 2-(4-chlorobenzylamino)-4-[4-(tert-butylaminocarbonyl)-piperidin-1-yl]-quinoline hydrochloride] | – | – | – | – | – | – | – | – | – | – | – | –
7 | 5 to 10 µM | 0.5 to 5 µM | 5 to 10 µM | 5 to 10 µM | 5 to 10 µM | 5 to 10 µM | Cc1cccc(OC2CCN(c3cc(NCc4ccc(Cl)cc4)nc4ccccc34)CC2)c1 [Compound 2946, 2-(4-chlorobenzylamino)-4-[4-(m-tolyloxy)piperidin-1-yl]quinoline hydrochloride] | – | – | – | – | – | – | – | – | – | – | – | –
8 | – | – | – | – | – | – | CC(C)N(Cc1ccc(Cl)cc1)c1cc(N2CCC(NC(C)(C)C)CC2)c2ccccc2n1 [Compound 216, 2-(N-4-chlorobenzyl-N-isopropylamino)-4-[4-(tert-butylamino)-piperidin-1-yl]-quinoline hydrochloride] | 74.1% | 0.5% | 78.1% | 0.4% | 78.4% | 0.5% | 86.7% | 0.5% | 30.4% | 0.4% | 15.5% | 0.3%
9 | – | – | – | – | – | – | N#Cc1c(NCc2ccc(Cl)cc2)nc2ccccc2c1N1CCCC(Oc2cccc(F)c2)C1 (centres unmarked) [Compound 3240CN, 2-(4-chlorobenzylamino)-3-cyano-4-[3-(3-fluorophenoxy)piperidin-1-yl]quinoline] | 123% | 113% | 95.6% | 94.9% | 98.2% | 94.5% | 106% | 113% | 97% | – | 99.4% | 95.8%
10 | – | – | – | – | – | – | COc1cc(C)nc(Nc2ccc(Nc3nc4ccccc4c(N4CCC(NC(C)(C)C)CC4)c3C#N)cc2C)n1 [Compound 510CN, 2-[4-(4-methyl-6-methoxypyrimidin-2-ylamino)-3-methylphenylamino]-3-cyano-4-(4-tert-butylaminopiperidin-1-yl)quinoline] | 62.6% | 0.3% | 57.4% | 0.1% | 2.8% | 0.1% | 74.5% | 0.2% | 54.6% | 0.1% | 24.8% | 0.1%
11 | – | – | – | – | – | – | Cc1cc(Nc2nc3ccccc3c(N3CCC(NC(C)(C)C)CC3)c2C#N)ccc1Nc1ccnc(-c2cccnc2)n1 [Compound 522CN, 2-{3-methyl-4-[2-(pyridin-3-yl)pyrimidin-4-ylamino]phenylamino}-3-cyano-4-(4-tert-butylaminopiperidin-1-yl)quinoline] | 0.4% | 0.4% | 0.3% | 0.3% | 0.2% | 0.2% | 0.3% | 0.3% | 0.3% | 0.2% | 0.3% | 0.2%
12 | – | – | – | – | – | – | N#Cc1c(NCc2ccc(Cl)cc2)nc2ccccc2c1N1CCC(Oc2cccc(F)c2)C1 (centres unmarked) [Compound 3340CN, 2-(4-chlorobenzylamino)-3-cyano-4-[3-(3-fluorophenoxy)pyrrolidin-1-yl]quinoline] | 85.6% | 39.9% | 95.9% | 90.8% | 65.7% | 36.4% | 96% | 97.7% | 98.9% | 90.8% | 101% | 86.3%
13 | 5 to 10 µM | 5 to 10 µM | 0.5 to 5 µM | 5 to 10 µM | 5 to 10 µM | 5 to 10 µM | Clc1ccc(CNc2cc(N3CC(N4CCOCC4)C3)c3ccccc3n2)cc1 [Compound 118, 2-(4-chlorobenzylamino)-4-[3-(morpholin-4-yl)azetidin-1-yl]quinoline hydrochloride] | – | – | – | – | – | – | – | – | – | – | – | –
